Laboratory results from US20230277553A1, “THERAPEUTIC COMPOSITION OF CURE-PRO COMPOUNDS FOR TARGETED DEGRADATION OF BET DOMAIN PROTEINS, AND METHODS OF MAKING AND USAGE” (CORNELL UNIVERSITY, priority 2020, published 2023).
Entries after “also recorded” stand apart in the source; their conditions may differ.

Tests used:
BRD4 [1] = molecular target: T1, BRD4 (Homo sapiens, UniProt O60885); experiment: Summary of BRD4 degradation by CURE-PRO pairs, estimated from Western Blot or WES (Proteinsimple); type: cell-based; parameters: endogenous in cells; conditions: for Degradation of BRD4 in combination with CRBN ligand [drawing 370]: aromatic 1,2-diol- or hindered cis-1,2-diol-containing CRBN ligand, first drawing (8046)
From the text: A black check mark indicates efficacy of 30% to 70% or higher protein degradation.

MV-4-11 cells = experiment: CellTiter-Glo cell viability, MV-4-11 cells; type: cell-based; conditions: for Loss of cellular viability / toxicity, cotreated with cereblon ligands 8046, 8047 and 8066 vs monomers alone: MV-4-11, 72 hours, 1:1, 10 nM-100 μM each
Description: CellTiter-Glo® 2.0 Cell Viability Assay (Promega) was carried out following the manufacturer's recommendations. Cells were seeded at a density of 1000 cells/well in a white 96 well plates (Corning, #3917) in a total volume of 100 μl with respective monomers, combinations of BRD ligands together with E3 ligase ligands or vehicle control treatment. After a 72 h incubation, 100 ul of the CellTiter-Glo® substrate was added per well and luminescence was read on a Spectramax M5 (Molecular Devices). Dose-response curves were generated using Graphpad Prism software.
MV-4-11 cells (5×104) were treated for 24 hours with the sample compounds solubilized in DMSO. The compounds were added at 1 nM-100 μM each. Cellular viability was determined using the CellTiter-Glo® Luminescent Cell Viability Assay (Promega) described above. FIGS. 19-22 depict the CURE-PRO-mediated loss of cellular viability for BRD monomers (JQ1 derivatives comprising of catechol linkers), and CRBN ligand, 8049 (pomalidomide derivatives comprising boronic acid linkers) combined in a 1:1 ratio.
MV-4-11 cells (1×104) were treated for 72 hours with the compounds solubilized in DMSO. Compounds were added at 10 nM-100 μM each. Cellular viability was determined using the CellTiter-Glo® Luminescent Cell Viability Assay (Promega) described above. FIGS. 47-54 depict the CURE-PRO-mediated loss of cellular viability for BRD monomers (JQ1 derivatives comprising of boronic acid linkers), and CRBN ligands, 8046, 8047 and 8066 (pomalidomide derivatives comprising diol linkers) combined in a 1:1 ratio.

BRD4 [2] = molecular target: T1, BRD4; experiment: CURE-PRO-mediated BRD4 degradation, Western blot, HeLa cells; type: cell-based; parameters: endogenous in cells; host or cells: HeLa; conditions: for BRD4 degradation, co-treatment with CRBN ligand 8046: 1:1 with 8046, 10 μM each
Method in brief: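 HeLa cells treated 24 h with compounds in DMSO (1-10 μM, 10 μM or 100 μM each; paired monomers combined 1:1), optional 15-min pretreatment with pomalidomide, VHL298, Nutlin3a (10 μM) or MG-132/carfilzomib (1 μM). RIPA lysates, 10-20 μg protein immunoblotted for BRD4 with β-actin, ECL detection.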

SLC19A1 = experiment: Suppression of c-MYC downstream target gene SLC19A1, RT-PCR (Cells-to-Ct), HeLa cells; type: cell-based, Human; conditions: 24 h, 10 μM
Description: The suppression of the expression of the downstream c-MYC target, SLC19A1, was measured by RT-PCR using Power SYBR© Green Cells-to-Ct™ Kit (Life Technologies). Adherent cells were plated on 96 well plates at 5,000 cells per well were treated for 24h with monomer compounds and compounds capable of reversible interactions (1 nM-100 μM). Cells were subsequently washed in ice-cold PBS processed according to the manufacturer's instructions. Quantitative real-time PCR was performed using a ViiA™ 7 Real-time PCR System (Applied Biosystems, Foster City, Calif., USA). GAPDH and ACTB served as internal controls. The primers used were (5′-3′): GAPDH-F: AGCCACATCGCTCAGACAC (SEQ ID NO:9), GAPDH-R: GCCCAATACGACCAAATCC (SEQ ID NO:10), ACTB —F: CCAACCGCGAGAAGATGA (SEQ ID NO: 11), ACTB -R: […] (SEQ ID NO: 12), SLC19A1-F: […] (SEQ ID NO:13), SLC19A1-R: […] (SEQ ID NO: 14).
HeLa cells (1×104) were treated for 24 hours in 96 well plates with the compounds solubilized in DMSO. Compounds were added at 10 μM each and RNA expression measured by the Cells-to Ct method described above (Thermofisher). CURE-PRO-mediated suppression of the downstream target gene of c-MYC, SLC19A1, after BRD4 degradation was evident in cells treated with the combination of BRD-N25 and 8310 or 8312 (FIG. 66) and BRD-N39 and 8310 and 8312 (FIG. 67) as indicated by a rightward shift in the curve and in increase in the Ct values.

BRD4 [3] = molecular target: T1, BRD4; experiment: CURE-PRO-mediated BRD4 degradation, WES (ProteinSimple), HeLa cells; type: cell-based; parameters: endogenous in cells; host or cells: HeLa; conditions: 24 h, tested 100 nM-10 μM each
Description: All cell lines were purchased from ATCC or DSMZ and grown at 37° C. with 5% CO2. Human HeLa cells were cultured in complete growth medium (Dulbecco's modified Eagle's medium (DMEM) supplemented with 10% FBS); MCF7 cells were cultured in complete growth medium (Dulbecco's modified Eagle's medium (DMEM) supplemented with 10% FBS and 0.01 mg/ml human recombinant insulin (Sigma Aldrich); Namalwa and MOLM-13 cells were cultured in complete growth medium (RPMI 1640 medium supplemented with 10% FBS); MV-4-11 were cultured in complete growth medium (Iscove's Modified Dulbecco's medium, supplemented with 10% FBS); HCT116 cells were cultured in complete growth medium (McCoy's 5a Medium supplemented with 10% FBS). For cellular degradation of BRD4 studies, cells were seeded in a 12-well plate at 70-80% confluency, allowed to attach overnight, and incubated with the indicated compounds for the indicated time. When indicated, a 15-minute pretreatment with 10 μM pomalidomide, 10 μM VHL298, 10 μM Nutlin3a, 1 μM MG-132 or 1 μM Carfilzomib was performed before the addition of CURE-PROs. For washout studies, after CURE-PRO treatment, media was aspirated and incubated with complete medium for the indicated time before lysis.
Anti-BRD4 (13440, 1:1,000 dilution for Western Blot and 1:25 dilution for ProteinSimple); Anti-BRD2 (5848 1:1,000 dilution for Western Blot and 1:25 dilution for ProteinSimple); β-Actin (3700, 1:2,000 dilution for Western Blot), β-Actin (4970, 1:50 dilution for ProteinSimple) anti-mouse IgG-HRP, and anti-rabbit IgG-HRP antibodies were purchased Cell Signaling Technology. Anti-GAPDH (600-401-A33, 1:100 dilution for ProteinSimple) was purchased from Rockland Immunochemicals, Inc. Anti-BRD3 (sc-81202, 1:200 dilution for Western Blot) was purchased from Santa Cruz Biotechnology.
WES Simple analysis was performed on WES system (ProteinSimple-Biotechne) according to the manufacturer's instructions. Total protein concentrations of cell lysates were determined by the Pierce BCA kit (Thermo Fisher). 3 μL of 0.3 μg/μL of the protein lysate was loaded onto a 12- to 230-kDa WES assay plate (ProteinSimple) where 300 nL sample was withdrawn through a capillary, subjected to electrophoretic separation of proteins by size, and followed by the simultaneous, HRP-based detection of proteins using the Anti-Rabbit Detection Module (Proteinsimple: #DM-001). The electropherograms were checked then the automatic peak detection was manually corrected if it was required.
HeLa cells (2.5×10^6) were treated for 4-24 hours with the compounds solubilized in DMSO. After 4 hours, indicated points were washed and cells were left in full growth media. Compounds were added at 10 μM each. […]

With `COc1ccc2c(c1)C(c1ccc(Cl)cc1)=N[C@@H](CC(=O)NCCOCCOCCNC(=O)c1cccc(B(O)O)c1)c1nnc(C)n1-2` [BRD-E46] the “Degradation of BRD4 in combination with CRBN ligand [drawing 372]” value (BRD4 [1]; Table 1, CRBN ligand, third drawing (8066)) was “✓ (A black check mark indicates efficacy of 30% to 70% or higher protein degradation)”, the “Degradation of BRD4 in combination with CRBN ligand [drawing 370]” value (BRD4 [1]; Table 1) was “✓ (A black check mark indicates efficacy of 30% to 70% or higher protein degradation)” and the “Loss of cellular viability / toxicity, cotreated with cereblon ligands 8046, 8047 and 8066 vs monomers alone” value (MV-4-11 cells) was “reduced viability; also recorded: increased toxicity”. The “BRD4 degradation, co-treatment with CRBN ligand 8046” value (BRD4 [2]; 24 h, Western blot) was “causes degradation of BRD4; also recorded: Degradation is noted” and the “BRD4 degradation, co-treatment with CRBN ligand 8066” value (BRD4 [2]; 24 h, 1:1 with 8066, 10 μM each (BRD-E10: 10 and 100 μM), Western blot) was “causes degradation of BRD4; also recorded: Degradation is noted”.
For `Nc1cccc2c1C(=O)N(C1CCC(=O)NC1=O)C2=O` (stereo not shown) [pomalidomide, reference compound], the “Inhibition of CURE-PRO-mediated BRD4 degradation (BRD-E52 or BRD-E72 with 8047) by preincubation” value (BRD4 [2]; 15 min preincubation, equimolar (10 μM)) was “competitively inhibited; also recorded: inhibition of CURE-PRO-mediated BRD4 degradation” and the “Suppression of SLC19A1 expression, single compound” value (SLC19A1) was “no suppression”.
With `Cc1sc2c(c1C)C(c1ccc(Cl)cc1)=N[C@@H](CC(=O)Nc1ccc(OCCOCCOCCOCCNc3cccc4c3C(=O)N(C3CCC(=O)NC3=O)C4=O)cc1)c1nnc(C)n1-2` (stereo partly shown) [ARV-825, reference compound] the “Suppression of SLC19A1 expression, single compound” value (SLC19A1) was “Complete suppression of SLC19A1 was evident; also recorded: completely suppressed”.
In the case of `CCNC(=O)C[C@@H]1N=C(c2ccc(Sc3ccccc3)cc2)c2cc(OC)ccc2-n2c(C)nnc21` [BRD-E52C, N-ethyl-2-((4S)-8-methoxy-1-methyl-6-(4-(phenylthio)phenyl)-4H-benzo[f][1,2,4]triazolo[4,3-a][1,4]diazepin-4-yl)acetamide], the “Concentration at which BRD4 degradation is induced, with 8047 (WES)” value (BRD4 [3]) is reported as greater than 10 µM.
In the case of `CCNC(=O)C[C@@H]1N=C(c2ccc(Cl)cc2)c2cc(Sc3cccc(B(O)O)c3)ccc2-n2c(C)nnc21` [BRD-E76], the “Degradation of BRD4 in combination with CRBN ligand [drawing 370]” value (BRD4 [1]; Table 1) is reported as “✓ (A black check mark indicates efficacy of 30% to 70% or higher protein degradation)”, the “Loss of cellular viability / toxicity, cotreated with cereblon ligands 8046, 8047 and 8066 vs monomers alone” value (MV-4-11 cells) is reported as “reduced viability; also recorded: increased toxicity” and the “BRD4 degradation, co-treatment with CRBN ligand 8046” value (BRD4 [2]; 24 h, Western blot) is reported as “causes degradation of BRD4”. The “BRD4 degradation, co-treatment with CRBN ligand 8047” value (BRD4 [2]; 24 h, 1:1 with 8047, 10 μM each, Western blot) was “causes degradation of BRD4”.
For `COc1ccc2c(c1)C(c1ccc(Cl)cc1)=N[C@@H](CC(=O)NCCc1ccc(O)c(O)c1)c1nnc(C)n1-2` [BRD-N10, (S)-2-(6-(4-chlorophenyl)-8-methoxy-1-methyl-4H-benzo[f][1,2,4]triazolo[4,3-a][1,4]diazepin-4-yl)-N-(3,4-dihydroxyphenethyl)acetamide], the “Degradation of BRD4 in combination with CRBN ligand [drawing 407]” value (BRD4 [1]; Table 4, aryl-boronic acid-containing CRBN ligand, first drawing (by text: 8048)) was “✓ (A black check mark indicates efficacy of 30% to 70% or higher protein degradation)”, the “Degradation of BRD4 in combination with CRBN ligand [drawing 408]” value (BRD4 [1]; Table 4, aryl-boronic acid-containing CRBN ligand, second drawing (by text: 8049)) was “✓ (A black check mark indicates efficacy of 30% to 70% or higher protein degradation)” and the “Degradation of BRD4 in combination with MDM2 ligand [drawing 423]” value (BRD4 [1]; Table 5, aryl-boronic acid-containing MDM2 ligand, first drawing (8310)) was “✓ (A black check mark indicates efficacy of 30% to 70% or higher protein degradation)”. The “Loss of cellular viability / toxicity, co-dosed with CRBN ligand 8049” value (MV-4-11 cells; MV-4-11, 24 hours, 1:1 with 8049, 1 nM-100 μM each) was “concentration-dependent loss in cellular viability; also recorded: increased toxicity”, the “BRD4 degradation, co-treatment with CRBN ligand 8048” value (BRD4 [2]; 24 h, 1:1 with 8048, 1-10 μM each, Western blot) was “causes degradation of BRD4; also recorded: capable of degrading BRD4” and the “BRD4 degradation, BRD ligand alone” value (BRD4 [2]; 24 h, BRD monomer alone, Western blot) was “no degradation of BRD4”.
